The values below come from ChEMBL document CHEMBL1140360, “Synthesis and biological activity of 3,4-dihydroquinazolines for selective T-type Ca2+ channel blockers” (Bioorg Med Chem Lett, 2005).

Type in all cases: cell-based
The subject of assay [1] is HEK293. The assay is described as follows: Selectivity for T-type and N-type [Ca2+] channels expressed in HEK293 cells at 10 uM. The following applies: Homo sapiens.
For assay [2], the target named is Voltage-dependent N-type calcium channel subunit alpha-1B (Homo sapiens) (UniProt Q00975). Briefly: Percent inhibition of N-type [Ca2+] channel (Alpha-1B) expressed in HEK293 cells at 10 uM.
Voltage-dependent N-type calcium channel subunit alpha-1B (Homo sapiens), sequence (Q00975 whole entry, looked up): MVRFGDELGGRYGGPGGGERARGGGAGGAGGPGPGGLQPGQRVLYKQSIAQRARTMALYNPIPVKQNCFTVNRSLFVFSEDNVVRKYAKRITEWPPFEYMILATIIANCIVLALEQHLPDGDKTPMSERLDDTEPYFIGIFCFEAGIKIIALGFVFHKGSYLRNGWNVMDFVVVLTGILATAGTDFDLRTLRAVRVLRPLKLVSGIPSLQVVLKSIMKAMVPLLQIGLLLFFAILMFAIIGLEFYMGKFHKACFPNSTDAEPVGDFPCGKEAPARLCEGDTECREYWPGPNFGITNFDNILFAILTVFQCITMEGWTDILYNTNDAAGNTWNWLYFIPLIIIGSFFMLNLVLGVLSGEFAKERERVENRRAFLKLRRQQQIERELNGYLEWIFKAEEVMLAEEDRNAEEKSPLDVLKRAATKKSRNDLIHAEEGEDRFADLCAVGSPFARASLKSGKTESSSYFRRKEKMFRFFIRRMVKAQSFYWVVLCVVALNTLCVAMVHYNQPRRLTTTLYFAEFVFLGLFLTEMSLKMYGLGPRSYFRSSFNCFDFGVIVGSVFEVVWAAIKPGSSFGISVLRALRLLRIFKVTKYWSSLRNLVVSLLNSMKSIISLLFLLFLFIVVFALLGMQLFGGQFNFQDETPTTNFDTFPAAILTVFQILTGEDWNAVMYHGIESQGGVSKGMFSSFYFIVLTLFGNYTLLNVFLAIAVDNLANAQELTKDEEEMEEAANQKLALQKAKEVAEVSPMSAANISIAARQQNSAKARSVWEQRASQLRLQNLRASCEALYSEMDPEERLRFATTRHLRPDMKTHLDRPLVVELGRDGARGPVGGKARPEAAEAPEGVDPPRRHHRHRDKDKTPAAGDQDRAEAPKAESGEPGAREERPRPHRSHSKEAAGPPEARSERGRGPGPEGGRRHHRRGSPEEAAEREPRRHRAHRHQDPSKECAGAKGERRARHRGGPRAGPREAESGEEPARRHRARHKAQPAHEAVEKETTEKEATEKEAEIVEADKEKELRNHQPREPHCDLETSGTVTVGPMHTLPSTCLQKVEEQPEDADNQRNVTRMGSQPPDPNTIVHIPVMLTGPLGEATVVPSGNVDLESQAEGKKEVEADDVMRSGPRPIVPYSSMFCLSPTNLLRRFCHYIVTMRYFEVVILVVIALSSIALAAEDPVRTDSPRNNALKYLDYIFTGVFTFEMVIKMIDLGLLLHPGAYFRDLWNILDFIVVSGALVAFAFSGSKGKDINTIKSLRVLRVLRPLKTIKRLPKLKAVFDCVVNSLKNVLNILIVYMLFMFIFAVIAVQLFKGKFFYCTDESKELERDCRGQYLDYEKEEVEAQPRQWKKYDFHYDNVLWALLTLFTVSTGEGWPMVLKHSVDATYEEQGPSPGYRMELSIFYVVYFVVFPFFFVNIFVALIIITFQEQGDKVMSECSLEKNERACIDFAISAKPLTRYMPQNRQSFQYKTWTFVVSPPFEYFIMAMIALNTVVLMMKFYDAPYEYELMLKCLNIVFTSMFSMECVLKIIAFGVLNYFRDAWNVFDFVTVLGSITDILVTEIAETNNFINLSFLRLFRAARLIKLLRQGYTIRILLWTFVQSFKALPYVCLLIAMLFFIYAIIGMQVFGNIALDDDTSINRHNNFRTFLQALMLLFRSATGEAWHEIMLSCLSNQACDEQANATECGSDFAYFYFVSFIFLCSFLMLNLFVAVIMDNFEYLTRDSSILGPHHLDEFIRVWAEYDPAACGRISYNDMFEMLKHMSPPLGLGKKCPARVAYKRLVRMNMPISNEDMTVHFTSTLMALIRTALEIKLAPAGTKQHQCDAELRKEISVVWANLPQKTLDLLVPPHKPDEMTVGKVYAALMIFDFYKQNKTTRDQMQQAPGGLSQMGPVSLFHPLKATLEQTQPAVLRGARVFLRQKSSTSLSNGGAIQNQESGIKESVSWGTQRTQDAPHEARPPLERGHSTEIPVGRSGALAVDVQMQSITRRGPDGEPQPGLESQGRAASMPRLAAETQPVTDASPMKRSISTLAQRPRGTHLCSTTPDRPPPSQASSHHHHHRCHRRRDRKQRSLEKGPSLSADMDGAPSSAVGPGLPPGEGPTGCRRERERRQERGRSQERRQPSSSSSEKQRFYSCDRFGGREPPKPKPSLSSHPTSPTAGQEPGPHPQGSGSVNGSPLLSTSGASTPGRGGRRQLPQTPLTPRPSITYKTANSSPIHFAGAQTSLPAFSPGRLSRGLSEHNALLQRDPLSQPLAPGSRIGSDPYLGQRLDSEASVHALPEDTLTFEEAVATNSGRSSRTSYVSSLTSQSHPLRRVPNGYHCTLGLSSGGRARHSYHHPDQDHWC
For assay [3], the target named is T1, Voltage-dependent T-type calcium channel subunit alpha-1G (Homo sapiens, UniProt O43497). Briefly: Percent inhibition of T-type [Ca2+] channel (alpha1G) expressed in HEK293 cells at 10 uM.
T1 sequence (O43497 whole entry): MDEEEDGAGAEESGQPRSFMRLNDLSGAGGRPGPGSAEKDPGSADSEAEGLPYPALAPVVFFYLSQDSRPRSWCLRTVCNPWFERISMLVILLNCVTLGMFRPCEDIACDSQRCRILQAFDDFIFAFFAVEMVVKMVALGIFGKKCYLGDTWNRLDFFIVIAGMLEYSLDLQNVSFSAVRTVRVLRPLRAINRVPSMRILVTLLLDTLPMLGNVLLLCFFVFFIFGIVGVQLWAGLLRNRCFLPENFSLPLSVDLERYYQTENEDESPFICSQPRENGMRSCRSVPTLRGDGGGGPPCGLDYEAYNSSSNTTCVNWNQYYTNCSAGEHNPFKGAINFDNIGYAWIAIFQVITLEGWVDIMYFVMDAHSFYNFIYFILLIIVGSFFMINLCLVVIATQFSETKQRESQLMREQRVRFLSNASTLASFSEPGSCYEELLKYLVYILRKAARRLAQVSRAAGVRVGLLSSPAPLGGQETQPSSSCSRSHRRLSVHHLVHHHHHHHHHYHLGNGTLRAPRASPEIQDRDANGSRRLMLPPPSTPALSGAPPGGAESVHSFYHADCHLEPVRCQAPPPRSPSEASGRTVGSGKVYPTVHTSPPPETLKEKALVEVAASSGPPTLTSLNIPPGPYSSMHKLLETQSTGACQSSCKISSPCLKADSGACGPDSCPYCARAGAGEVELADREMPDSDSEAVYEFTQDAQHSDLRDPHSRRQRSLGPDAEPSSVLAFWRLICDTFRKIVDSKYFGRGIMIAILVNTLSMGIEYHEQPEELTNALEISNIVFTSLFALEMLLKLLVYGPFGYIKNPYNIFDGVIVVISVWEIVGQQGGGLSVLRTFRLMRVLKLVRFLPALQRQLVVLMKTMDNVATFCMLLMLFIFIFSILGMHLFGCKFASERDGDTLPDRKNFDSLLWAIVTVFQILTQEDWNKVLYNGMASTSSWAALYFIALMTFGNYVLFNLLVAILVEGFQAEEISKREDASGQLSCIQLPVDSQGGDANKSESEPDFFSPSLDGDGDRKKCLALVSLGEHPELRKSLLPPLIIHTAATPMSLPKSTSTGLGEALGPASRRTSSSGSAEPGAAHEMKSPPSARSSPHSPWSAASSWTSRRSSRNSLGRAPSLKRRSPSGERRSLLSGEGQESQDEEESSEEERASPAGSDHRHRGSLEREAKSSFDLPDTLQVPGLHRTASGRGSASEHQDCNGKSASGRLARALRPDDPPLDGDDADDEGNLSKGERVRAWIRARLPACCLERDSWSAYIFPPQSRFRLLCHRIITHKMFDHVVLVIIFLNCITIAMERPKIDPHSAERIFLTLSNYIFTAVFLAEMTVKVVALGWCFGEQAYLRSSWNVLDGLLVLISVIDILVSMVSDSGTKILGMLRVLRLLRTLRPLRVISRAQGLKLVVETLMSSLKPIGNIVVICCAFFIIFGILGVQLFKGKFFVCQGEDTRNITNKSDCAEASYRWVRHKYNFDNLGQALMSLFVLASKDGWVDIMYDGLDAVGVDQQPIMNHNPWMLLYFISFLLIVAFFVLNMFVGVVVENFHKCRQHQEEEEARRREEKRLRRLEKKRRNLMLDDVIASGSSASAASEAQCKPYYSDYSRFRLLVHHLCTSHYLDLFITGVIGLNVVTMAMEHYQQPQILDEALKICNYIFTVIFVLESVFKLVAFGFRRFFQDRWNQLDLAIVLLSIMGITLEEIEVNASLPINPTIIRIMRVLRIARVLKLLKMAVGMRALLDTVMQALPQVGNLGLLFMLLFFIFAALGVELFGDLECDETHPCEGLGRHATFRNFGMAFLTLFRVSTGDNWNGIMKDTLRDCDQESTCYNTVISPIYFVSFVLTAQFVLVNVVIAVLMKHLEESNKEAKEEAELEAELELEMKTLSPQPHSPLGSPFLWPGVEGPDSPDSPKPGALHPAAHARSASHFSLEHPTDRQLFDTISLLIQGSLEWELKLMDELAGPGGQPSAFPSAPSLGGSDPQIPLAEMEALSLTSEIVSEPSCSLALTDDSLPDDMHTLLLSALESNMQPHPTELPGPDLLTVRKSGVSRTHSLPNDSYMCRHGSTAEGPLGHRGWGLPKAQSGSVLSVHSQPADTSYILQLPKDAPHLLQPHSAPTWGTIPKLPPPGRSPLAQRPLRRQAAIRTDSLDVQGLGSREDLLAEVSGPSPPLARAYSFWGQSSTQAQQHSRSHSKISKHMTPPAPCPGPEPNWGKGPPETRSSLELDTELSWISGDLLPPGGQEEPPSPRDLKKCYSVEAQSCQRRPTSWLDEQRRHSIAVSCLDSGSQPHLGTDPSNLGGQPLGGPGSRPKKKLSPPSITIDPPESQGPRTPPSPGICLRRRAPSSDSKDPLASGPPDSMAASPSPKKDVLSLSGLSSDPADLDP
Assay [4] deals with Voltage-dependent T-type calcium channel subunit alpha-1H (Homo sapiens) (UniProt O95180). Briefly: Percent inhibition of T-type [Ca2+] channel (alpha1H) stably expressed in Xenopus oocytes at 100 uM. The following applies: Oocyte.
Assay [5] addresses T1, Voltage-dependent T-type calcium channel subunit alpha-1G. The assay is described as follows: Inhibition of T-type [Ca2+] channel (alpha1G) expressed in HEK293 cells.
For assay [6], the target named is Voltage-dependent N-type calcium channel subunit alpha-1B (Homo sapiens) (UniProt Q00975). The assay is described as follows: Percent inhibition of N-type [Ca2+] channel (Alpha-1B) expressed in HEK293 cells at 10 uM; No blocking.

Regarding `NCCCCCN1C(Nc2ccc(-c3ccccc3)cc2)=Nc2ccccc2C1CC(=O)NCc1ccccc1` (configuration not stated), the Selectivity in assay [1] came out at 6. The values for the inhibition in assay [2], in assay [3] and in assay [4] were 15.2%, 91.8% and 97%, respectively. For the same compound, in assay [5], the 50% inhibitory concentration (IC50) amounted to 140 nM.

Compound `COC(=O)CC1c2ccccc2N=C(Nc2ccc(-c3ccccc3)cc2)N1CCCCCNC(=O)OC(C)(C)C` (configuration not stated) displayed a Selectivity in assay [1] of 0.9. Moreover, the inhibition in assay [2] was found to be 94.9%; in assay [3], 88.5%; in assay [4] it was 96.5%. The IC50 in assay [5] stood at 370 nM.

On to `NCCCCCNC1=Nc2ccccc2C(CC(=O)NCc2ccccc2)N1c1ccc(-c2ccccc2)cc1` (configuration not stated), for which the Selectivity in assay [1] worked out at 10.1. The inhibition stood at 8.3% in assay [2], 83.8% in assay [3] and 80.1% in assay [4]. Further, in assay [5], the IC50 was 130 nM.

For `O=C(CC1c2ccccc2N=C(N2CCCCC2)N1c1ccccc1)NCc1ccccc1` (configuration not stated), the IC50 in assay [5] is 1160 nM.

Regarding `Cc1ccc(S(=O)(=O)Nc2ccc(CNC(=O)CC3c4ccccc4N=C(N4CCCCC4)N3c3ccccc3)cc2)cc1` (configuration not stated), in assay [5], the IC50 turned out to be 170 nM.

For `COC(=O)CC1c2ccccc2N=C(NCCCCCN)N1c1ccc(-c2ccccc2)cc1` (configuration not stated), the results for the inhibition in assay [3], in assay [4] and in assay [6] were 82.5%, 97% and under 1%, respectively.

Consider `CC(C)(C)OC(=O)NCCCCCN1C(Nc2ccc(-c3ccccc3)cc2)=Nc2ccccc2C1CC(=O)NCc1ccccc1` (configuration not stated), for which the Selectivity in assay [1] came out at 2.9. The results for the inhibition in assay [2], in assay [3] and in assay [4] were 30.1%, 88.5% and 91.2%, respectively. Further, in assay [5], the IC50 amounted to 170 nM.

`COC(=O)CC1c2ccccc2N=C(Nc2ccc(-c3ccccc3)cc2)N1CCCCCN` (configuration not stated) came in with a Selectivity in assay [1] of 11.2. Further, the inhibition in assay [2] is 7.5%; in assay [3], 84.1%; in assay [4], 94.6%. The IC50 in assay [5] came out at 300 nM.

Turning to `O=C(CC1c2ccccc2N=C(N2CCCCC2)N1c1ccccc1)NCc1ccc(NS(=O)(=O)c2ccc(F)cc2)cc1` (configuration not stated), the 50% inhibitory concentration (IC50) in assay [5] amounted to 110 nM.

Consider `COCC(=O)O[C@]1(CCN(C)CCCc2nc3ccccc3[nH]2)CCc2cc(F)ccc2[C@@H]1C(C)C`, for which, in assay [2], the inhibition stood at 67.6%.

`COC(=O)CC1c2ccccc2N=C(NCCCCCNC(=O)OC(C)(C)C)N1c1ccc(-c2ccccc2)cc1` (configuration not stated): in assay [1], the Selectivity worked out at 0.9. Moreover, the values for the inhibition in assay [2], in assay [3] and in assay [4] were 98.6%, 86.5% and 92.2%, respectively. Moreover, the IC50 in assay [5] was 680 nM.

`CC(C)(C)OC(=O)NCCCCCNC1=Nc2ccccc2C(CC(=O)NCc2ccccc2)N1c1ccc(-c2ccccc2)cc1` (configuration not stated) gave a Selectivity in assay [1] of 5.3. Also, the results for the inhibition in assay [2], in assay [3] and in assay [4] were 16.6%, 88.3% and 84.2%, respectively. Further, in assay [5], the IC50 was found to be 160 nM.

For orientation: inhibition means the change of the read-out against control, counted positive when it falls. As usually defined, the IC50 is the concentration needed to halve the response being measured.
